Measurements from publication PMC11124822, “Discovery and Anticancer Screening of Novel Oxindole-Based Derivative Bearing Pyridyl Group as Potent and Selective Dual FLT3/CDK2 Kinase Inhibitor” (Pharmaceuticals, 2024).
Like-named read-outs stand apart in the source and are kept apart here.

Tests used:
CAKI-1 = test: NCI-60 antiproliferative screen (SRB); assay type: cell-based, human; conditions: five-dose, 48 h, CAKI-1
SF-295 = test: NCI-60 antiproliferative screen (SRB); assay type: cell-based, human; conditions: 48 h
OVCAR-8 = test: NCI-60 antiproliferative screen (SRB); assay type: cell-based, human; conditions: 48 h
HT29 = test: NCI-60 antiproliferative screen (SRB); assay type: cell-based, human; conditions: 48 h
CCRF-CEM = test: NCI-60 antiproliferative screen (SRB); assay type: cell-based, human; conditions: 48 h
EKVX = test: NCI-60 antiproliferative screen (SRB); assay type: cell-based, human; conditions: 48 h
U251 = test: NCI-60 antiproliferative screen (SRB); assay type: cell-based, human; conditions: 48 h
SNB-19 = test: NCI-60 antiproliferative screen (SRB); assay type: cell-based, human; conditions: 48 h
PC-3 = test: NCI-60 antiproliferative screen (SRB); assay type: cell-based, human; conditions: 48 h
IGROV1 = test: NCI-60 antiproliferative screen (SRB); assay type: cell-based, human; conditions: five-dose, 48 h, IGROV1
[1] = test system: NCI-60 human cancer cell lines; test: NCI-60 screen, full panel summary; assay type: cell-based
Method: In a comprehensive test, compounds were assayed at a single dose concentration (10^−5 M) in the full panel of NCI-60 cancer cell lines.

A549/ATCC = test: NCI-60 antiproliferative screen (SRB); assay type: cell-based, human; conditions: 48 h
HCT-116 = test: NCI-60 antiproliferative screen (SRB); assay type: cell-based, human; conditions: 48 h
MDA-MB-468 = test: NCI-60 antiproliferative screen (SRB); assay type: cell-based, human; conditions: 48 h

O=C1Nc2cc(Cl)ccc2C1=Cc1ccc(OCc2cccnc2)cc1 (mixture of isomers) [Compound 5l, (E/Z)-6-Chloro-3-[4-(pyridin-3-ylmethoxy)benzylidene] indolin-2-one]
GI50 (CAKI-1; Homo sapiens): 4.44 µM | CC50 (CAKI-1; Homo sapiens, read-out: LC50 (the source's name)): > 100 µM | TGI (CAKI-1): 26.90 µM | inhibition at 10 µM (SF-295; Homo sapiens, 10 µM single dose, SF-295 (CNS), read-out: Growth inhibition (%)): 63.3% | GI50 (SF-295; Homo sapiens, five-dose, SF-295): 10.6 µM | TGI (SF-295; five-dose, SF-295): 39.90 µM | inhibition at 10 µM (OVCAR-8; Homo sapiens, 10 µM single dose, OVCAR-8 (Ovarian), read-out: Growth inhibition (%)): 88.6% | GI50 (OVCAR-8; Homo sapiens, five-dose, OVCAR-8): 7.96 µM | TGI (OVCAR-8; five-dose, OVCAR-8): 45.20 µM | inhibition at 10 µM (HT29; Homo sapiens, HT-29, 10 µM single dose, HT29 (Colon), read-out: Growth inhibition (%)): 90.3% | GI50 (HT29; Homo sapiens, HT-29, five-dose, HT29): 6.45 µM | CC50 (HT29; Homo sapiens, HT-29, five-dose, HT29, read-out: LC50 (the source's name)): > 100 µM | TGI (HT29; five-dose, HT29): 37.80 µM | inhibition at 10 µM (CCRF-CEM; Homo sapiens, 10 µM single dose, CCRF-CEM (Leukemia), read-out: Growth inhibition (%)): 83.9% | GI50 (CCRF-CEM; Homo sapiens, five-dose, CCRF-CEM): 3.72 µM | TGI (CCRF-CEM; five-dose, CCRF-CEM): >100 µM | inhibition at 10 µM (EKVX; Homo sapiens, 10 µM single dose, EKVX (NSCLC), read-out: Growth inhibition (%)): 60.9% | GI50 (EKVX; Homo sapiens, five-dose, EKVX): 6.02 µM | TGI (EKVX; five-dose, EKVX): >100 µM | inhibition at 10 µM (U251; Homo sapiens, U-251, 10 µM single dose, U251 (CNS), read-out: Growth inhibition (%)): 76.4% | GI50 (U251; Homo sapiens, U-251, five-dose, U251): 7.55 µM | CC50 (U251; Homo sapiens, U-251, five-dose, U251, read-out: LC50 (the source's name)): > 100 µM | TGI (U251; five-dose, U251): 39.40 µM | inhibition at 10 µM (SNB-19; Homo sapiens, 10 µM single dose, SNB-19 (CNS), read-out: Growth inhibition (%)): 56.2% | GI50 (SNB-19; Homo sapiens, five-dose, SNB-19): 12.4 µM | TGI (SNB-19; five-dose, SNB-19): >100 µM | inhibition at 10 µM (PC-3; Homo sapiens, 10 µM single dose, PC-3 (Prostate), read-out: Growth inhibition (%)): 67.1% | GI50 (PC-3; Homo sapiens, five-dose, PC-3): 6.37 µM | CC50 (PC-3; Homo sapiens, five-dose, PC-3, read-out: LC50 (the source's name)): > 100 µM | TGI (PC-3; five-dose, PC-3): >100 µM | GI50 (IGROV1; Homo sapiens, IGROV-1): 10.7 µM | CC50 (IGROV1; Homo sapiens, IGROV-1, read-out: LC50 (the source's name)): > 100 µM | TGI (IGROV1): 3.32 µM | Positive Cytostatic Effect (cell lines with percent growth from 0 to 50 / total number of cell lines) ([1]; 10 µM single dose): 44/56 | Positive Cytotoxic Effect (cell lines with percent growth of <0 / total number of cell lines) ([1]; 10 µM single dose): 4/56 | Sensitive/Total Cell Lines ([1]; 10 µM single dose): 48/56 | The Most Sensitive Cell Line ([1]; 10 µM single dose): SK-MEL-5 | number of cell lines with cytostatic effects ([1]; 10 µM single dose): 44 | number of cell lines with cytotoxic effects ([1]; 10 µM single dose): 4 | Mean Growth Percent ([1]; 10 µM single dose, all NCI-60 cell lines): 72.81 | inhibition at 10 µM ([1]; Homo sapiens, 10 µM single dose, read-out: Range of Growth Inhibition on All Cells): 8.89 to 153% | GI50 ([1]; Homo sapiens, five-dose, almost all cell lines, read-out: GI50 values, range over evaluated human cancer types): 2.7 to 77.1 µM | CC50 ([1]; Homo sapiens, five-dose, excluding LOX IMVI, SK-MEL-5, SK-MEL-28, read-out: LC50 for most of the examined cancer cells): > 100 µM | GI50 ([1]; Homo sapiens, five-dose, full panel, read-out: Full panel MG-MID (GI50)): 12.2 µM | TGI against the left-over cancer cells ([1]; five-dose): > 100 µM | inhibition at 10 µM (A549/ATCC; Homo sapiens, 10 µM single dose, A549/ATCC (NSCLC), read-out: Growth inhibition (%)): 58.8% | GI50 (A549/ATCC; Homo sapiens, five-dose, A549/ATCC): 15.5 µM | TGI (A549/ATCC; five-dose, A549/ATCC): >100 µM | inhibition at 10 µM (HCT-116; Homo sapiens, 10 µM single dose, HCT-116 (Colon), read-out: Growth inhibition (%)): 93% | GI50 (HCT-116; Homo sapiens, five-dose, HCT-116): 6.97 µM | TGI (HCT-116; five-dose, HCT-116): >100 µM | inhibition at 10 µM (MDA-MB-468; Homo sapiens, 10 µM single dose, MDA-MB-468 (Breast), read-out: Growth inhibition (%)): 85.7% | GI50 (MDA-MB-468; Homo sapiens, five-dose, MDA-MB-468): 3.76 µM | CC50 (MDA-MB-468; Homo sapiens, five-dose, MDA-MB-468, read-out: LC50 (the source's name)): > 100 µM | TGI (MDA-MB-468; five-dose, MDA-MB-468): 43.00 µM
